Assay results published in PMC3798130 (Angewandte Chemie (International Ed. in English), 2013).

Tests used:
JMJD2E (KDM4E) [1] = target: T1, JMJD2E (KDM4E) (Homo sapiens, UniProt B2RXH2); assay: Kinetic parameters for reactions of lysine analogue peptides with JMJD2E; type: biochemical; conditions: MALDI-TOF initial rates
T1 sequence (B2RXH2 1-506): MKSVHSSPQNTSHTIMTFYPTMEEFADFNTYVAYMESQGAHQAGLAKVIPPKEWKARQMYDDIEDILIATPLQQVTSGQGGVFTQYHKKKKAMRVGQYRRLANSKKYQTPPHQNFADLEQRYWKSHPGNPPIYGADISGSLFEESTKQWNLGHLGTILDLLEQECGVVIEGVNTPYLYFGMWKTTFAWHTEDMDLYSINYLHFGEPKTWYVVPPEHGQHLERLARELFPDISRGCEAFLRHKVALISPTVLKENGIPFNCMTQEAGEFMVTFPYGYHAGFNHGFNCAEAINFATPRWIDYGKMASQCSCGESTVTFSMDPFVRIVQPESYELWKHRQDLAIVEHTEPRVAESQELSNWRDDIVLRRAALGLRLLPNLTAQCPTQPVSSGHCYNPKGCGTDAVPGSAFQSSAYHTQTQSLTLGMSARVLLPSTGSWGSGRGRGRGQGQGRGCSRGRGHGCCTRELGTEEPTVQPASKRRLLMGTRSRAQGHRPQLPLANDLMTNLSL

JMJD2E (KDM4E) [2] = target: T1, JMJD2E (KDM4E); assay: MALDI-TOF MS activity assay; type: biochemical; conditions: 1 hour, 25 °C, pH 7.5, mass gain

| mass of product greater than substrate peptide (hydroxylation) (JMJD2E (KDM4E) [2]) | Substance | KM, Vmax and kcat compared with other peptides (JMJD2E (KDM4E) [1]) |
| --- | --- | --- |
| 16 Da | ART-Lys(Me3)-QTAR-Lys(iPr)-STGGKA [H3 Lysine-9(iPr)] | higher than values for the other three peptides |
| 16 Da | ART-Lys(Me3)-QTAR-Lys(Me/iPr)-STGGKA [H3 Lysine-9(Me/iPr)] | – |
